Source: patent publication US6368831B1, “Treatment of hyperproliferative disorders” (Childrens Hospital Los Angeles, priority 1998, dated 2002)

Key:
[1] = tested on: CHLA-90 neuroblastoma cells; assay: DIMSCAN cytotoxicity assay, CHLA-90; assay type: cell-based; conditions: for cell survival on addition of safingol to the retinoid: retinoid plus safingol 3:1 molar ratio vs retinoid alone; for Combination Index (C.I.) at LD99: PPMP isomer plus HPR at 1:1 micromolar ratio, +96-120 hours
Procedure: (§1) Cytotoxicity is determined using the DIMSCAN assay system (R. Proffitt et al., Cytometry 24, 204-213 (1996); T. Frgala et al., Proc. AACR, 36, 303 (1995). The system employs digital imaging microscopy to quantify viable cells, which selectively accumulate fluorescein diacetate to become brightly fluorescent. The system is capable of measuring cytotoxicity over a 4-5 log dynamic range by quenching the residual fluorescence of dead and dying cells with eosin Y and quantifying the total fluorescence of viable cells using digital thresholding. Measured fluorescence is directly proportionate to the number of viable cells. A comparison of the total fluorescence of a drug-treated cell population to the fluorescence of a similar number of untreated cells yields a survival fraction. In brief, 5000 to 10,000 SK-N-RA neuroblastoma cells/well are replicate plated into 60 wells of a 96-well tissue culture plate in 0.1 cc media and allowed to attach overnight. Drug(s) are then added in 0.05 cc media to the final concentrations indicated. There are 12 wells treated per drug concentration. Twelve wells receive drug-vector only to the appropriate final concentration and serve as controls for the plate. Cells are incubated for 96-120 hours at 37° C. in 5% CO2. Fluorescein diacetate is then added to each well in 0.05 cc media to a final concentration of 8 microgram/cc. Cells are incubated for a further 15 minutes at 37° C. and 0.03 cc of 0.5% eosin Y is added to each well. Total fluorescence of viable cells is then measured by digital imaging microscopy.
(§2) Methods. Cells were added in 100 μL whole medium per well to 96-well microplates for DIMSCAN cytotoxicity assay as previously described. Cell lines used were the neuroblastoma cell lines CHLA-90 and LAN-6. At Time=0, either all-trans-retinoic acid (ATRA), 13-cis-retinoic acid (13-cis-RA) or a combination of retinoid plus safingol at a 3:1 molar ratio were added in 50 μL whole medium. Plates were incubated and assayed for cytotoxicity by DIMSCAN assay at +120 for CHLA-90 cells and+144 hours for LAN-6 cells.
Methods. To determine the manner in which 4-HPR or HPR+safingol induced cell death in neuroblastoma cells, morphological evidence of apoptosis and/or necrosis was assessed in CHLA-90 cells in the presence or absence of a specific as inhibitor of apoptosis, the neural cell-penetrant, pan-caspase enzyme inhibitor, BOC-d-fink (Enzyme Systems Products, Livermore, Calif.). […] CHLA-90 cells were plated in duplicate in whole medium in Lab Tek chamber slides (Nunc, Naperville, Ill.), allowed to attach for 24 hours, and then treated in the presence or absence of BOC-d-fink (40 μM) for one hour prior to treatment with HPR (10 μM). Control cells were treated with vehicle solvents of 0. 1% ethanol (4-HPR) and/or 0.2% DMSO (BOC-d-fink). Morphological features of apoptosis (DNA condensation and/or apoptotic bodies) were visualized in undetached cells at +24 or +48 hours using blue nuclear fluorescence induced by the supravital DNA stain Hoechst 33342 (10 μg/ml for 30 mins at 37° C.), while necrotic cells and advanced apoptotic cells were recognized by red fluorescent staining with propidium iodide (0.5 μM/ml). Red fluorescently-staining cells with condensed nuclear remnants were scored as apoptotic cells. For cells assayed at +48 hours, additional BOC-d-fink (40 μM) or appropriate control vehicle was added at +24 hours. Cells were observed using filters appropriate for each dye sequentially on an Olympus Vanox epifluorescence microscope. Mutiple random fields of cells (of ˜100-500 cells each) were counted and photographed for viable cells, apoptotic cells, and necrotic cells. To further examine cells treated with HPR, cytotoxicity assays were performed on CHLA-90 cells pretreated with or without 40 μM BOC-d-fmk for one hour prior to the addition of 4-HPR (3-10 μM) and assayed at +24 hours by DIMSCAN assay to assess the effect of caspase inhibition on viability. […]

[2] = tested on: LAN-6 neuroblastoma cells; assay: DIMSCAN cytotoxicity assay, LAN-6; assay type: cell-based, human; conditions: +144 hours; for cell survival on addition of safingol to the retinoid: retinoid plus safingol 3:1 molar ratio vs retinoid alone
Procedure: as §1, with “A comparison of the total fluorescence of a drug-treated cell population to the fluorescence of a similar number of untreated cells yields a survival fraction.” left out
as §2

[3] = tested on: Neuro2a neuroblastoma cells; conditions: cited from earlier work
CHLA-90 cells = assay: Flow cytometry sub G0/G1 DNA content, CHLA-90; assay type: cell-based, human; conditions: BOC-d-fmk 40 μM, HPR 10 μM, +24 hours
[4] = tested on: SK-N-RA neuroblastoma cells; assay: DIMSCAN cytotoxicity assay, SK-N-RA; assay type: cell-based; conditions: for Combination Index (C.I.) at LD99: PPMP isomer plus HPR at 1:1 micromolar ratio, +96-120 hours
Procedure: as §1
As reported above, we have succeeded in increasing the cytotoxicity of 4-HPR through inhibition of several ceramide-related pathways. Most of the inhibitors used have been only studied in vitro. […]
Methods. […] Cytotoxocity is expressed as the fraction of cells surviving (Survival Fraction, S.F.). […] Cytotoxic synergy was analyzed by Combination Index (C.I.) analysis calculated at the dose lethal to 99% of exposed cells (LD99). Statistical analysis of the differences in mean cytotoxicity was evaluated by the unpaired, two-sided Student's t test.

MCF7/GCS cells = assay: DIMSCAN cytotoxicity assay, MCF7/GCS tet OFF vs tet ON; assay type: cell-based, human; conditions: 96 hours, P<0.005 at >6 μM HPR, safingol 0-4 μM
Excerpt: We have shown that HPR generates ceramide in neuroblastoma tumor cell lines in a dose- and time-depenent manner (B. Maurer et al., J. Natl. Cancer Inst. (1999)(in press)). Glucosylceramide (GC) is a nontoxic metabolite of ceramide. Ceramide is converted into glucosylceramide by the action of glucosylceramide synthase (GCS). Glucosylceramide synthase (GCS) has been transfected into human MCF7 breast cancer cells in a tetracycline-inducible expression construct in the MCF7/GCS cell line (Y. Liu et al., J. Biol. Chem. 274:1140-46 (1999)). […] We have exposed MCF7/GCS cells to HPR, safingol and HPR+safingol in the absence, and in the presence, of doxycycline.
Methods. MCF7/GCS cells were plated and incubated in RPMI medium with 10% fetal bovine serum and 200 microgram/ml Hygromycin B (tet OFF) for DIMSCAN cytotoxicity assays as previously described. To increase GCS expression, MCF7/GCS cells were also incubated in the above medium with 3 microgram/ml doxycycline (tet ON) for three days prior to replating them for DIMSCAN cytotoxicity assay. DIMSCAN assays with doxycycline-induced (tet ON) cells also included 3 microgram/ml doxycycline in the medium. Both “tet OFF” and “tet ON” MCF7/GCS cells were exposed to HPR, safingol and HPR+safingol (3:1 molar ratio) for 96 hours and assayed for survival fraction by DIMSCAN as previously described.

[5] = Phase I; one hour infusion at 120 mg/m^2; cited from earlier work

CC1=C(/C=C/C(C)=C/C=C/C(C)=C\C(=O)O)C(C)(C)CCC1 [13-cis-RA, 13-cis-retinoic acid]
cell survival on addition of safingol to the retinoid ([1]; +120 hours): significant decrease in the cell survival
cell survival on addition of safingol to the retinoid [2]: significant decrease in the cell survival

CC1=C(/C=C/C(C)=C/C=C/C(C)=C/C(=O)O)C(C)(C)CCC1 [ATRA, all-trans-retinoic acid]
increase in the level of ceramide [3]: 1.5 ×
cell survival on addition of safingol to the retinoid ([1]; +120 hours): significant decrease in the cell survival
cell survival on addition of safingol to the retinoid [2]: significant decrease in the cell survival

COC(=O)CC(NC(=O)OC(C)(C)C)C(=O)CF (stereo not drawn) [BOC-d-fmk]
sub G0/G1 DNA-fragmentation induced by HPR (CHLA-90 cells): abrogated

CCCCCCCCCCCCCCCC(=O)NC(CN1CCOCC1)C(O)c1ccccc1 [D,L-erythro-PPMP, 1-phenyl-2-palmitoylamino-3-morpholino-1-propanol]
Combination Index (C.I.) at LD99 [4]: < 0.06
Combination Index (C.I.) at LD99 [1]: 0.18

CCCCCCCCCCCCCCCC(=O)NC(CN1CCOCC1)C(O)c1ccccc1 [D,L-threo-PPMP, 1-phenyl-2-palmitoylamino-3-morpholino-1-propanol]
Combination Index (C.I.) at LD99 [4]: < 0.01
Combination Index (C.I.) at LD99 [1]: < 0.09

CCCCCCCCCCCCC/C=C/[C@@H](O)[C@H](CO)N(C)C [N-DMS, d-erythro-N,N-dimethylsphingosine]
cytotoxicity when added to fenretinide and PPMP ([4]; 5 μM fenretinide fixed plus 5 μM PPMP fixed plus N-DMS, 20% O2): increased cytotoxicity

CCCCCCCCCCCCCCC[C@H](O)[C@@H](N)CO [Safingol, (2S,3S)-2-amino-1,3-octadecanediol]
change of cytotoxicity in tet ON (doxycycline, GCS induced) compared to tet OFF cells (MCF7/GCS cells): no significant decrease
Survival Fraction ([1]; safingol alone at 4 μM, +120 hours): 0.11
reported toxicities [5]: no reported toxicities
serum levels during infusion [5]: 3000 nM
Survival Fraction ([2]; safingol alone at 4 μM): 0.39
